As usually defined, the pKi is −log10 of the Ki, conventionally taken in molar units.

The source of these data is ChEMBL document CHEMBL2074467, “Transport characteristics of differently charged cephalosporin antibiotics in oocytes expressing the cloned intestinal peptide transporter PepT1 and in human intestinal Caco-2 cells” (J Pharmacol Exp Ther, 1996).

Holding throughout (type): functional, cell-based
Experiment [1] addresses T1, Solute carrier family 15 member 1 (Homo sapiens) (UniProt P46059).
T1 sequence (whole entry): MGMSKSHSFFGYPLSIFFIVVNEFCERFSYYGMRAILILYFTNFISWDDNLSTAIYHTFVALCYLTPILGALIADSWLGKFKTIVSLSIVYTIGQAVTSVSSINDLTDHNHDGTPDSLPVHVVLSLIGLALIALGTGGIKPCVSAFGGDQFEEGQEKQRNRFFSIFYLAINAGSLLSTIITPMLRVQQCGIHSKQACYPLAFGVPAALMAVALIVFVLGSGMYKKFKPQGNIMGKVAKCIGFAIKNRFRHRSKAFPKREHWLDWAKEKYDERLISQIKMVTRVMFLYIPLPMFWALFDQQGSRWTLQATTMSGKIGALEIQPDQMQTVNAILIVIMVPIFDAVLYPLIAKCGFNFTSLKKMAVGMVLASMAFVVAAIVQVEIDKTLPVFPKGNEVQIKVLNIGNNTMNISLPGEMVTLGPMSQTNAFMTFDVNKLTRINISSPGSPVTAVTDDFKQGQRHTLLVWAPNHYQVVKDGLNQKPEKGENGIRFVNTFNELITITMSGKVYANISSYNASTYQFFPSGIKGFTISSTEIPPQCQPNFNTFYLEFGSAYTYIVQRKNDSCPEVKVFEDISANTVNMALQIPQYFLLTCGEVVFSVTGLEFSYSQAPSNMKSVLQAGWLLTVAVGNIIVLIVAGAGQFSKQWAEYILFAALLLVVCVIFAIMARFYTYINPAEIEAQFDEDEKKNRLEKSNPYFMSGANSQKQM
Briefly: TP_TRANSPORTER: inhibition of Cefadroxil uptake (apical pH 6.5, Cefadroxil: 1000 uM, Loracarbef: 10000 uM) in Caco-2 cells. Set-up: scale not given: the % may be the effect or the level left.

In experiment [2] the target is T1, Solute carrier family 15 member 1 (Homo sapiens). Briefly: TP_TRANSPORTER: inhibition of Cefadroxil uptake (apical pH 5.5, Cefadroxil: 1000 uM, Loracarbef: 10000 uM) in Caco-2 cells. Set-up: scale not given: the % may be the effect or the level left.
For experiment [3] the target is unchanged. The experiment can be described thus: TP_TRANSPORTER: inhibition of Cefadroxil uptake (apical pH 6.5, Cefadroxil: 1000 uM, Amoxicillin: 10000 uM) in Caco-2 cells. Set-up: scale not given: the % may be the effect or the level left.
For experiment [4] the target is unchanged. Briefly: TP_TRANSPORTER: inhibition of Cefadroxil uptake (apical pH 5.5, Cefadroxil: 1000 uM, Amoxicillin: 10000 uM) in Caco-2 cells. Set-up: scale not given: the % may be the effect or the level left.
Experiment [5] has as its target T2, Solute carrier family 15 member 1 (Homo sapiens, UniProt P46059).
T2 sequence (P46059 whole entry): T1 sequence (whole entry)
Briefly: TP_TRANSPORTER: inhibition of Cefixim uptake in Caco-2 cells.

Experiment [6] has as its target T2, Solute carrier family 15 member 1. The experiment can be described thus: TP_TRANSPORTER: inhibition of Cefadroxil uptake in Caco-2 cells.

Structures are written as SMILES. pKi: −log10 of the molar value.

With `N[C@@H](C(=O)N[C@@H]1C(=O)N2C(C(=O)O)=C(Cl)CC[C@H]12)c1ccccc1`, the Activity in experiment [1] is 60.3%; in experiment [2], 72.6%.
As to `CC1(C)S[C@@H]2[C@H](NC(=O)[C@H](N)c3ccc(O)cc3)C(=O)N2[C@H]1C(=O)O`, the figures for the Activity in experiment [3] and in experiment [4] were 62.9% and 85.7%, respectively.
`CC1=C(C(=O)O)N2C(=O)[C@@H](NC(=O)[C@H](N)c3ccc(O)cc3)[C@H]2SC1` [CEFADROXIL] gave a pKi in experiment [5] of 2.84.
Turning to `C=CC1=C(C(=O)O)N2C(=O)[C@@H](NC(=O)/C(=N\OCC(=O)O)c3csc(N)n3)[C@H]2SC1` [CEFIXIME], the pKi in experiment [6] is 2.88.
